Calls of active or inactive are those of the source. The rule behind the calls is not given here.
How the values were obtained:
MGC-803 [1] = experiment: Antiproliferative activity against human MGC803 cells assessed as inhibition of cell proliferation at 10 uM measured for 12 to 72 hrs by MTT assay relative to control; format: functional
MGC-803 [2] = experiment: Induction of mitochondrial membrane potential loss in human MGC803 cells at 0.5 to 2.5 uM measured after 24 by JC1 staining-based microscopic analysis; format: functional, cell-based
Calf thymus DNA = experiment: Binding affinity to calf thymus DNA assessed as blue shift in maximum absorption at 10:1 compound to DNA ratio incubated for 5 mins by UV-Vis spectroscopy; format: nucleic-acid assay; conditions: Bos taurus
MGC-803 [3] = experiment: Antitumor activity against human MGC803 cells xenografted in BALB/C mouse assessed as tumor growth inhibition at 12 mg/kg, ip administered every other day for 2 weeks measured during compound dosing relative to control; format: functional; conditions: MGC-803, ip, 336 h
DNA = experiment: Binding affinity to Escherichia coli supercoiled pBR322 DNA assessed as DNA intercalation at 0.5 to 10 uM after 3 hrs by ethidium bromide staining-based agarose gel electrophoresis analysis; format: nucleic-acid assay
NCI-H460 = experiment: Antiproliferative activity against human NCI-H460 cells assessed as reduction in cell viability incubated for 48 hrs by MTT assay; format: functional, cell-based; conditions: NCI-H460, 48 h
MGC-803 [4] = experiment: Antitumor activity against human MGC803 cells xenografted in BALB/C mouse assessed as tumor growth inhibition at 6 mg/kg, ip administered every other day for 2 weeks measured during compound dosing relative to control; format: functional; conditions: MGC-803, ip, 336 h, read-out: TGI

Activity (Calf thymus DNA): 10 nm | Activity (DNA): Active | IC50 (NCI-H460): 1960 nM
Compound: CN(C)CCCNc1c2c(nc3ccc(F)cc13)-c1ccccc1C2
inhibition at 10 µM (MGC-803 [1]): 40 to 95% | Activity (MGC-803 [2]): Active | inhibition in vivo at 12 mg/kg (MGC-803 [3]): 53.2% | inhibition in vivo at 6 mg/kg (MGC-803 [4]): 31.2%

Source: ChEMBL document CHEMBL4346660, “Cryptolepine and aromathecin based mimics as potent G-quadruplex-binding, DNA-cleavage and anticancer agents: Design, synthesis and DNA targeting-induced apoptosis” (Eur J Med Chem, 2019)
